Experimental data from patent US20070202047A1, “Polyamine-substituted ligands for use as contrast agents” (priority 2006, published 2007).

Key:
[1] = Relaxivity measurements in PBS solution; type: physicochemical; conditions: 37° C.; for longitudinal relaxation rate R1(Gd): 250 MHz (5.4 T); for molar chemical shift Δδ(Gd): H2O signal relative to external HDO; for molar chemical shift Δδ(Gd) / molar relaxivity r1: 250 MHz; for molar relaxivity r1: PBS
Description: Relaxivity Measurements. A phosphate-buffered saline (PBS, pH 7.4) reference solution and solutions of the Gd complexes Gd-3.1. (60 mM), Gd-5.1. (60 mM), and Gd-6.1. […] Each capillary was then inserted into a standard 5-mm NMR tube containing D2O (99.96% D) for ^1H relaxation rate measurements at 250 MHz (5.4 T, Bruker AC-250 spectrometer) and 37° C. using the inversion-recovery method. The relaxation rates R1 were determined by a three-parameter nonlinear least-squares fit of the intensity data to the equation M(τ)=M0[1−2q exp(−R1τ)] with 8-11 τ values. The transverse relaxation rate R2 was estimated from the H2O signal linewidth Δν at half height (R2=πΔν). The standard error of estimate for R1 was <0.7% for all samples. The relaxivities were estimated as r1 [s^−1 mM^−1]=[R1(Gd)−R1(0)]/[Gd], where [Gd] is the concentration of Gd complex in the sample with relaxation rate R1(Gd), and R1(0) is the rate for the reference sample of PBS. Analogous calculations were made for r2 from R2.
For the ^1H relaxation rate measurements at 250 MHz (5.4 T, Bruker AC-250 spectrometer) and 37° C., sample temperature was regulated to better than ±0.1° C. using the variable temperature unit of the spectrometer. The solutions studied were placed in capillaries to reduce the sample volume and the resulting intensity of the H2O signal, thus avoiding the influences of radiation damping on the relaxation behavior. The D2O solution added to the 5-mm NMR tube provided a field/frequency lock signal and residual HDO as a reference signal. An inversion-recovery pulse sequence (RD-180°-τ-90°-acquisition) was executed with a composite 180° pulse of constant phase, four-step phase cycling of the 90° pulse (7.3 μs) for four transients, and 8-11 τ values. For each sample the list of τ values was chosen after determining the approximate τnull for the “null” point of the recovery curve by trial measurements, and the delay RD was set to at least 10τnull. The resulting spectra were phase and baseline corrected manually, and the H2O signal intensity was determined by the peak picking algorithm of the NMR software.
The relaxation rates R1 were determined by a three-parameter nonlinear least-squares fit of the intensity data to the equation M(τ)=M0[1−2q exp(−R1τ)], where q was an additional fitting parameter used to account for the quality of spin inversion. The theoretical value of q is 1.0, and the fitted values were in the range 0.92-0.95. The transverse relaxation rate R2 was estimated from the H2O signal linewidth Δν at half height (R2=πΔν), and the chemical shift Δδ(Gd) of the H2O signal from the capillary relative to the HDO signal from the external D2O was determined as an additional measure of the paramagnetism of the Gd complex. The standard error of estimate for R1was <0.7% for all samples. The relaxivities were estimated as r1 […]=[R1(Gd)−R1(0)]/[Gd], where [Gd] is the concentration of Gd complex in the sample with relaxation rate R1(Gd), and R1(0) is the rate for the reference sample of PBS. Analogous calculations were made for r2 from R2 and for Δδ(Gd).

[2] = system: subcutaneous MH3924A tumor; test: MRI of ACI rats bearing a subcutaneous MH3924A tumor; type: in vivo, rat; conditions: 0.1 mmol/kg i.v., 2.35 T
Description: Animal models. For in vivo tumor studies 2×10^6 MH3924A tumor cells were injected subcutaneously into the right thigh of male ACI rats (Charles River, Sulzfeld, Germany) weighing 220 to 260 g. All animal experiments were performed in compliance with the German Animal Protection Laws (Permission 35-9185.81/G-7-03, Reg.-Praesidium, Karlsruhe, Germany).
MRI. At 25 days after inoculation, when tumors had reached a diameter of ca. 10-15 mm, the MR imaging experiments were initiated. ACI rats were anesthetized by intravenous injection of ketamin (Ketanest®, 0.1 mg/g body wt.; Parke-Davis, Berlin, Germany). Then a dose of 0.1 mmol/kg Magnevist® or Gadovist® (Schering, Berlin, Germany) or one of the synthesized agents Gd-3.1., Gd-5.1. or Gd-6.1. was injected intravenously into a lateral tail vein. For one experiment a higher dose (0.36 mmol/kg) of Magnevist® was used. Individual rats were examined by MRI at 1 h and 24 h post Gd, in the case of Magnevist® also at ca. 15 min post Gd. Proton imaging studies were performed at 2.35 T (100.3 MHz) with a Biospec 24/40 instrument (Bruker BioSpin MRI, Ettlingen, Germany). […] Two transaxial multislice imaging protocols were applied with a field of view of 70×70 mm, 128 time-domain data points, 96 phase-encoding steps, and 16 slices of 2 mm thickness. A multi-spin-echo sequence was used for proton-density and T2-weighted images (repetition time TR=2 s, 12 echoes with echo times TE of 8, 16, 24, . . . 96 ms, number of averages=1), and a spoiled gradient-echo sequence was used for T1-weighted imaging (TR=212 ms, TE=5 ms, flip angle=60°, number of averages=3). The data were Fourier transformed to give a 128×128 image matrix with 0.55 mm pixel resolution. Analogous T1-weighted images with coronal slices were acquired with a field of view of 80×80 mm and 3-mm slice thickness.
Imaging viewing, ROI analysis and export of TIFF files was performed with the freeware MRIcro from Chris Rorden (http://people.cas.sc.edu/rorden/mricro.html).

Row | longitudinal relaxation rate R1(Gd) ([1]; 60 mM in PBS) | molar chemical shift Δδ(Gd) [1] | molar relaxivity r1 [1] | longitudinal relaxation rate R1(Gd) ([1]; 30 mM in PBS) | Structure (SMILES) | contrast ratio tumor vs. muscle tissue, T1 weighting ([2]; 1 h post Gd) | contrast ratio tumor vs. muscle tissue, T1 weighting ([2]; 24 h post Gd)
1 | 469 ± 2 s⁻¹ | 0.125 ppm mM-^−1 | 7.8 s⁻¹ mM⁻¹ | – | CCN(CC)CCNC(=O)CN(CCN(CCN(CC(=O)[O-])CC(=O)N(CCN)CCN)CC(=O)[O-])CC(=O)[O-].[Gd+3] [Gd-3.1] | 1.22 | 1.11
2 | 137.9 ± 0.2 s⁻¹ | 0.045 ppm mM-^−1 | 2.3 s⁻¹ mM⁻¹ | – | NCCN(CCN)C(=O)CN(CCN(CCN(CC(=O)[O-])CC(=O)N(CCN)CCN)CC(=O)[O-])CC(=O)[O-].[Gd+3] [Gd-5.1] | 1.11 | 1.08
3 | – | 0.161 ppm mM-^−1 | 6.5 s⁻¹ mM⁻¹ | 194.5 ± 0.9 s⁻¹ | NCCCCN(CCCN)C(=O)CN(CCN(CCN(CC(=O)[O-])CC(=O)N(CCCN)CCCCN)CC(=O)[O-])CC(=O)[O-].[Gd+3] [Gd-6.1] | 1.49 | 1.21
